Assays:
[1] = compound: CC1(C)CNc2cc(NC(=O)c3cccnc3NCc3ccncc3)ccc21 [Motesanib] + CC(=O)Nc1cccc(-n2c(=O)n(C3CC3)c(=O)c3c(Nc4ccc(I)cc4F)n(C)c(=O)c(C)c32)c1 [Trametinib] (partner 0.02 µM); experiment: relative viability (nuclei count vs DMSO), 5 days (fraction); higher = more cells survive
Outline: (§1)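 Dosing by pin tool came one day after lung cancer cell lines were seeded in 1536-well plates, using either one drug or a fixed anchor-drug dose plus five library-drug doses (not always all listed) in √10 steps. After 5 days, nuclei were counted on 4× images. Relative viability is treated-well nuclei count divided by vehicle-well nuclei count, and values are medians of duplicate plates.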

[2] = compound: CC1(C)CNc2cc(NC(=O)c3cccnc3NCc3ccncc3)ccc21 [Motesanib] + NC(=O)Nc1cc(-c2cccc(F)c2)sc1C(=O)N[C@H]1CCCNC1 [AZD7762] (partner 0.2 µM); experiment: as above
Outline: as §1

Cell Line | relative viability ([1]; first compound 0.01 µM) | relative viability ([1]; first compound 0.03162 µM) | relative viability ([1]; first compound 0.1 µM) | relative viability ([1]; first compound 0.3162 µM) | relative viability ([1]; first compound 1 µM) | relative viability ([2]; first compound 0.01 µM) | relative viability ([2]; first compound 0.03162 µM) | relative viability ([2]; first compound 0.1 µM) | relative viability ([2]; first compound 0.3162 µM) | relative viability ([2]; first compound 1 µM)
HOP-62 | 0.366 | 0.379 | 0.37 | 0.405 | 0.424 | 0.456 | 0.836 | 0.613 | 0.761 | 0.595
LC-2-ad | 0.9 | 0.903 | 0.865 | 0.871 | 0.84 | 0.858 | 0.876 | 0.868 | 0.837 | 0.842
LCLC-97TM1 | 0.152 | 0.202 | 0.198 | 0.226 | 0.195 | – | 0.328 | 0.241 | 0.238 | 0.256
LCLC-103H | 0.674 | 0.707 | 0.659 | 0.744 | 0.682 | 0.802 | 0.743 | 0.781 | 0.825 | 0.829
LK-2 | 0.662 | 0.71 | 0.696 | 0.87 | 0.811 | 0.364 | 0.337 | 0.281 | 0.497 | 0.371
LOU-NH91 | 0.789 | 0.767 | 0.819 | 0.802 | 0.781 | 0.746 | 0.732 | 0.782 | 0.789 | 0.779
LU99A | 0.302 | 0.596 | 0.548 | 0.539 | 0.583 | 0.39 | 0.361 | 0.382 | 0.399 | 0.355
LXF-289 | 0.624 | 0.684 | 0.689 | 0.728 | 0.704 | 1.07 | 1.06 | 1.14 | 1.22 | 1.16
NCI-H23 | 0.392 | 0.341 | 0.37 | 0.432 | 0.382 | 0.194 | 0.227 | 0.186 | 0.195 | 0.244
NCI-H322M | 0.471 | 0.558 | 0.554 | 0.527 | 0.545 | 0.568 | 0.531 | 0.53 | 0.488 | 0.452
NCI-H358 | 0.13 | 0.137 | 0.129 | 0.163 | 0.138 | 0.434 | 0.626 | 0.481 | 0.661 | 0.55
NCI-H441 | 0.41 | 0.435 | 0.463 | 0.577 | 0.472 | 0.97 | 1.2 | 1.1 | 1.01 | 0.954
NCI-H460 | 0.139 | 0.104 | 0.209 | 0.179 | 0.142 | 0.56 | 0.633 | 0.772 | 0.653 | 0.611
NCI-H520 | 0.516 | 0.561 | 0.68 | 0.655 | 0.627 | – | – | – | – | –
NCI-H522 | 0.815 | 0.848 | 0.823 | 0.831 | 0.84 | 0.815 | 0.721 | 0.864 | 1 | 1
NCI-H596 | 0.68 | 0.918 | 0.761 | 0.798 | 0.958 | 0.973 | 0.825 | 1.09 | 1.01 | 1.13
NCI-H647 | 0.452 | 0.533 | 0.42 | 0.427 | 0.491 | 0.493 | 0.464 | 0.441 | 0.621 | 0.525

Reference: the supplement of paper PMC10307832
